Laboratory results published in patent publication US20260151398A1, “COMPOUNDS FOR REDUCING CHOLESTEROL AND TREATING LIVER AND KIDNEY DISEASE” (McMaster University, priority 2021, published 2026).
“Also recorded” adds a separate entry of the source.

Experiments:
C57BL/6J mice = test: Mouse studies: circulating PCSK9, triglycerides, ApoB and hepatic markers; assay type: in vivo
Procedure: Liver tissues were fixed in formaldehyde and subsequently embedded in paraffin for sectioning. […] Slides were then exposed to biotin-conjugated secondary antibodies for 45 minutes and then streptavidin peroxidase for 10 minutes. Staining was visualized using the Nova Red HRP Substrate (Vector Laboratories).
Mouse PCSK9 was measured using the Quantikinine® ELISA kit (#MCP900, R&D Systems) and human PCSK9 using the PCSK9 Quantikinine® ELISA kit (#DCP900, R&D Systems). Serum ApoB levels were also quantified using ELISAs (#DAPB00, R&D Systems). Serum samples were diluted as per manufacturer's instructions.
(§1) All animal studies were carried out in 8 h-fasted male wild-type, Pcsk9^−/− or Ampkβ1^−/− mice on the C57BL/6J background. CF (25-100 mg/kg-8 h) and CDN (50 mg/kg) treatments were administered via intraperitoneal injection unless specified otherwise. Primary mouse hepatocytes were isolated using a two-step process with EGTA ([…] in HEPES buffer, Sigma Aldrich) and collagenase (0.05% in HEPES buffer, Sigma Aldrich) in 12-week-old male mice on the C57BL/6J background. Cells were then washed, centrifuged, and plated following isolation in cell strainers. Hepatosure® 100-donor pooled primary human hepatocytes were purchased from Xenotech. Primary hepatocytes were regularly grown in William's E medium (Gibco, Thermo Fisher Scientific) containing 10% fetal bovine serum, 100 IU/ml penicillin, and 100 µg/ml streptomycin.
Next, the effect of CF on PCSK9 expression/secretion and ER stress marker expression was assessed in mice. […] Immunohistochemical staining intensities were quantified using ImageJ Software (FIG. 9 E).

calnexin = test: Calnexin protein expression in HuH7 cells (immunoblot); assay type: cell-based, human
Procedure: (§2) Cells were washed in phosphate-buffered saline (PBS), lysed in 4× SDS-PAGE lysis buffer and separated on 7-10% polyacrylamide gels in denaturing conditions. Gels were transferred to nitrocellulose membranes using the BioRad mini trans-blot system, blocked in 5% skim milk in tris-buffered saline (TBS) for 1 h and incubated in primary antibody overnight for 16 h at 4° C. Membranes were then exposed to horse radish peroxidase conjugated secondary antibodies and visualized using EZ-ECL chemiluminescent reagent (Froggabio). Band intensities were quantified using ImageJ software ([…]) against membranes reprobed for housekeeping proteins.
Among the many intracellular effects of CF on the cell, its ability to increase intracellular Ca^2+ levels is well-studied (Echeverri, D., et al., 2010). […] ER Ca^2+ levels were then examined in cells transfected with D1ER; a genetically-encoded ER-resident fluorescence resonance energy transfer (FRET)-based […] chameleon Ca^2+ sensor, which increases in fluorescence intensity upon Ca^2+ binding (Palmer, A. E., et al., 2004). The low-affinity Ca^2+ indicator, Mag-Fluo-4, was also utilized for the direct assessment of ER Ca^2+ and increases in fluorescence intensity upon Ca^2+ binding (Diercks, B. P., et al., 2017; Lebeau, P., et al., 2021). […] ER Ca^2+ content was also assessed indirectly with the high affinity Ca^2+ dye, fura-2-AM (FIG. 6 B). […]

LDLR = LDLR / CD36 expression in cultured hepatocytes; assay type: cell-based, human
Text: as §2, with “Gels were transferred to nitrocellulose membranes using the BioRad mini trans-blot system, blocked in 5% skim milk in tris-buffered saline (TBS) for 1 h and incubated in primary antibody overnight for 16 h at 4° C.” left out
Slides were then mounted with permafluor and visualized using the EVOS FL colour imaging system at either 20 or 40× magnification.
RNA purification/isolation was performed using RNeasy mini kits (Qiagen) and normalized to 2 μg RNA using a NanoDrop® spectrophotometer. Samples were then reverse transcribed into cDNA using Superscript Vilo cDNA Synthesis kit (Thermofisher Scientific). Real-time PCR was executed with Fast SYBR Green (Thermo Fisher Scientific) using the ΔΔct method on the ViiA7 real-time PCR platform (Thermofisher Scientific).
The uptake and accumulation of DiI-LDL was then quantified using a fluorescent spectrophotometer (Molecular Devices). […] Live-cell staining of the LDLR was also performed in HepG2 cells exposed to DiI-LDL (FIG. 11 D).

PCSK9 = test: Plasma PCSK9 in healthy human subjects after oral CF; assay type: in vivo; details: fasted healthy subjects, 400 mg orally (~5 mg/kg)
Procedure: Secreted PCSK9 levels were assessed directly in cell culture medium of cells grown in FBS-free medium for 24 h or in the serum isolated from either mice or human subjects. Mouse PCSK9 was measured using the Quantikinine® ELISA kit (#MCP900, R&D Systems) and human PCSK9 using the PCSK9 Quantikinine® ELISA kit (#DCP900, R&D Systems). Serum ApoB levels were also quantified using ELISAs (#DAPB00, R&D Systems). Serum samples were diluted as per manufacturer's instructions.
Healthy human subjects between the ages of 22 and 45 underwent fasting for 12 h prior to oral administration of 400 mg CF (˜5 mg/kg). Blood was collected prior to administration and at h 2 and 4 following administration.
Given that CF is among the most commonly consumed pharmacologically active compounds in the world (8), its ability to affect PCSK9 levels in fasted healthy volunteers was assessed. Serum was collected prior to, as well as 2- and 4-h post CF treatment (400 mg orally; ˜5 mg/kg). Consistent with the observations in cultured hepatocytes and in mice, CF reduced plasma PCSK9 levels in healthy subjects by 25% (n=12) and 21% (n=8) at the 2- and 4-h time points, respectively (FIG. 11 A and B).

AMPK = AMPK phosphorylation in livers of CF-treated mice; assay type: in vivo, mouse; details: C57BL/6J mice, CF 100 mg/kg, 8 hours
Procedure: as §1
Previous studies have also shown that CF can promote the phosphorylation and activation of AMPK (Quan, H. Y., et al., 2013; Tsuda, S., et al., 2015), a liver-expressed kinase known to induce the inhibitory phosphorylation of SREBP1c (Li, Y., et al., 2011). […] Primary mouse hepatocytes were then isolated from wildtype (WT) and Ampkβ1−/− mice (Dzamko, N., et al., 2010).

[1] = 18-week-old C57BL/6J mice, CF 30 mg/kg every 24 hours for 14 days

Structure (SMILES)	hepatic LDLR expression (CDN) (C57BL/6J mice; mice, 50 mg/kg, IP, 8 h)	calnexin protein expression (calnexin)	LDLR mRNA transcript levels (LDLR; HuH7 and HepG2)	expression of PCSK9-regulated receptors (LDLR, CD36) (LDLR; cultured hepatocytes, CF 200 μM, immunoblots)	reduction of plasma PCSK9 levels at 2 h (PCSK9; 2 h) [%]	reduction of plasma PCSK9 levels at 4 h (PCSK9; 4 h) [%]	phosphorylation of AMPK (pAMPK) and pACC in liver (AMPK)	serum Apolipoprotein B (ApoB) (C57BL/6J mice; [1])	serum PCSK9 after daily dosing (C57BL/6J mice; [1])	circulating PCSK9 levels after oral gavage (C57BL/6J mice; mice, CF 20 mg/kg oral gavage, listed as CF)	circulating PCSK9 levels (C57BL/6J mice; mice, CF 50 mg/kg IP, 8 h)	circulating triglyceride levels (C57BL/6J mice; mice, CF 50 mg/kg IP, 8 h)	time required to significantly reduce plasma PCSK9 (C57BL/6J mice; mice, time-course) [h]	hepatic expression of UPR markers / chaperones (C57BL/6J mice; mouse liver, CF 50 mg/kg, 8 h, listed as CF)
Cc1ccc2cccc(NC(=O)c3ccc(OC(C)C)cc3)c2n1 [CDN]	increased hepatic LDLR expression													
C/C=C(/C)C(=O)O[C@H]1C(C)=C2[C@H]([C@@H]1OC(=O)CCCCCCC)[C@@](C)(OC(C)=O)C[C@H](OC(=O)CCC)[C@@]1(O)[C@H]2OC(=O)[C@@]1(C)O [TG, thapsigargin]		blocked												
Cn1c(=O)c2c(ncn2C)n(C)c1=O [caffeine, 1,3,7-Trimethylxanthine]		induced	reduced mRNA transcript levels of the LDLR	increased the expression of PCSK9-regulated receptors	25	21	induced the phosphorylation and activation of AMPK	reduction	reduction	reduced circulating PCSK9 levels; also recorded: reduces plasma PCSK9 levels	significant reduction	significant reduction	4	reduced the expression of UPR markers; also recorded: reduces chaperone expression
